This is an account of results in PMC12128885, “Myricetin-bound crystal structure of the SARS-CoV-2 helicase NSP13 facilitates the discovery of novel natural inhibitors” (Acta Crystallographica Section D: Structural Biology, 2025).

pIC50, pKd: −log10 of the molar value. Entries after “also recorded” stand apart in the source; their conditions may differ. Read-outs that look alike come from different tables or passages of the source.

Test [1] relates to Wuhan-like SARS-CoV-2 strain. The test can be described thus: microbe, parasite or virus in culture. The class given is cell-based.
A further test deals with main protease (NSP5). The note with it: 2024, cited from earlier work.
In the next test the target is spike protein. The note with it: read-out: Kd, spike protein; ref Su et al., 2021; Pan et al., 2023; Kuzikov et al., 2024; cited from earlier work.
Test [2] has as its target RNA-dependent RNA polymerase (NSP12). More on the design: method as in Su et al., 2021; Pan et al., 2023; Kuzikov et al., 2024. The note with it: ref Su et al., 2021; Pan et al., 2023; Kuzikov et al., 2024; cited from earlier work.

What is called pIC50 is the negative decadic logarithm of the IC50, by convention in mol/L. Take `O=C(/C=C/c1ccc(O)c(O)c1)O[C@H](Cc1ccc(O)c(O)c1)C(=O)O` [Rosmarinic acid, (2R)-3-(3,4-Dihydroxyphenyl)-2-[(E)-3-(3,4-dihydroxyphenyl)prop-2-enoyl]oxypropanoic acid]: the pIC50 in test [1] (Severe acute respiratory syndrome coronavirus 2, Vero C1008, read-out: IC50, infection assay (percentage of infected cells)) is 4.23; in the test with main protease (NSP5) (noncovalent binding to active site, ref Li et al., read-out: IC50, NSP5), 5.66.

In general, pKd refers to the negative decadic logarithm of the Kd, by convention in mol/L. For the compound `O=c1c(O)c(-c2cc(O)c(O)c(O)c2)oc2cc(O)cc(O)c12` [Myricetin, 3,5,7-Trihydroxy-2-(3,4,5-trihydroxyphenyl)chromen-4-one], the pKd at spike protein was 5.57. In addition, the pIC50 in the test on main protease (NSP5) (ref Su et al., 2021, Pan et al., 2023, Kuzikov et al., read-out: IC50, main protease (NSP5)) is 6.20; in test [2] it was 6.07.

For the compound `O=C(/C=C/c1ccc(O)c(O)c1)O[C@@H]1C[C@](O)(C(=O)O)C[C@@H](O)[C@H]1O` [Chlorogenic acid, (1S,3R,4R,5R)-3-[(E)-3-(3,4-Dihydroxyphenyl)prop-2-enoyl]oxy-1,4,5-trihydroxycyclohexane-1-carboxylic acid], the “IC50, infection assay (percentage of infected cells)” value in test [1] (Vero E6 cells, MOI 0.3, 48 h, compound 1 h before infection) was “no significant effect; also recorded: no significant inhibition”.

`O=c1nc(NO)ccn1[C@@H]1O[C@H](CO)[C@@H](O)[C@H]1O` [NHC, β-D-N4-hydroxycytidine, reference compound]: in test [1] (Vero E6 cells, MOI 0.3, 48 h, compound 1 h before infection, read-out: IC50, infection assay (percentage of infected cells)), the negative logarithm of the IC50 (pIC50) is 6.13.
